Reference: US10294530B2, “Biomarker FOXF2 for gastric cancer” (The Chinese University of Hong Kong, priority 2016, dated 2019)

Tested on: FOXF2 expression
Assay: Demethylation treatment, FOXF2 expression by semi-quantitative PCR
Type: cell-based, human
Protocol: Semi-quantitative PCR was performed in a total volume of 20 μL reaction containing GeneAmp 1×PCR Buffer II (Applied Biosystems), 2.5 mM MgCl2, 200 μM each of dNTP, 200 nM each of primers, 0.4 U of AmpliTaq Gold DNA polymerase (Applied Biosystems) and 30˜50 ng cDNA. The PCR program started with an initial denaturation at 94° C. for 10 min, followed by 32-35 cycles (94° C. for 30 sec, annealing temperature for 30 sec, and 72° C. for 30 sec) of amplification, with a final extension at 72° C. for 10 min. The PCR bands were visualized under ultraviolet light and photographed. The expression of the target gene was normalized by the expression of house-keeping gene β-actin, which served as an internal control.
Cells were seeded at a density of 1×10^5/100-mm dishes and grew for 24 hours. Cells were then treated with 2 μM 5-aza-2′-deoxycytidine (“5-Aza”) (Sigma-Aldrich) for 5 days. The 5-Aza was replenished every day. The gene expression of FOXF2 was evaluated using semi-quantitative PCR.

**Q.** Nc1ncn([C@H]2C[C@H](O)[C@@H](CO)O2)c(=O)n1 [5-Aza, 5-aza-2′-deoxycytidine] was tested. Which FOXF2 expression (AGS, 2 μM 5-Aza for 5 days) did it give?
**A.** restored

**Q.** What about the FOXF2 expression (MKN28, 2 μM 5-Aza for 5 days) of the same compound?
**A.** restored

**Q.** And the FOXF2 expression (MKN45, 2 μM 5-Aza for 5 days)?
**A.** restored

**Q.** What about the FOXF2 expression (MKN74) of the same compound?
**A.** insufficient

**Q.** And the FOXF2 expression (NCL-N87, 2 μM 5-Aza for 5 days)?
**A.** restored

**Q.** What about the FOXF2 expression (SNU719, 2 μM 5-Aza for 5 days) of the same compound?
**A.** restored
